{
  "source": "patent US10201584B1",
  "about": "“Compositions and methods for treating HCV” (AbbVie Inc., priority 2011, dated 2019)",
  "origin": "cited, not measured here",
  "tested_on": "HCV",
  "details": "hepatitis C patients; background statement",
  "data": [
    {"compound": "NC(=O)c1ncn([C@@H]2O[C@H](CO)[C@@H](O)[C@H]2O)n1", "note": "[ribavirin]", "values": [
      {"measurement": "suppression of HCV levels / effectiveness of regimen", "value": "does not effectively suppress HCV levels"}
    ]}
  ]
}
